Experimental data taken from US6355799B1, “Substituted benzene compounds, process for their preparation, and herbicidal and defoliant compositions containing them” (ISK Americas Incorporated, priority 1997, dated 2002).

Columns and labels:
Type in all cases: in vivo
[1] = tested on: redroot pigweed (Amaranthus retroflexus, AMARE); assay: Pre-emerge test, greenhouse herbicide activity screening; conditions: pre-emerge, 14 days after application, scale 0-100
From the text: (§1) A standard greenhouse herbicide activity screening system was used to evaluate the herbicidal efficacy and crop safety of these test compounds. Seven broadleaf weed species including redroot pigweed (Amaranthus retroflexus, AMARE, velvetleaf (Abutilon theophrasti, ABUTH), sicklepod (Cassia obtusifolia, CASOB), ivyleaf morningglory (Ipomoea hederacea, IPOHE), lambsquarters (Chenopodium album, CHEAL), common ragweed (Ambrosia artemisizfolia L., AMBEL), and cocklebur (Xanthium strumarium, XANST) were used as test species. Four grass weed species including green foxtail (Setaria viridis, SETVI), barnyardgrass (Echinochloa crus-galli, ECHCG), johnsongrass (Sorghum halepense, SORHA), and large crabgrass (Digitaria sanguinalis, DIGSA) were also used. In addition, three crop species, field corn (Zea mays L., var. Dekalb 535, CORN), soybean (Glycine max L., var. Pella 86, SOY), and is upland rice (Oryza sp., var. Tebonnet, RICE) were included.
(§2) All plants were grown in 10 cm square plastic pots which were filled with a sandy loam soil mix. For pre-emerge tests, seeds were planted one day prior to application of the test compounds. For post-emerge tests, seeds were planted 8-21 days prior to the test to allow emergence and good foliage development prior to application of the test substances. At the time of the post-emerge application, plants of all species were usually at the 2-3 leaf stage of development.
All test compounds Were dissolved in acetone and applied to the test units in a volume of 187 l /ha. […] Plants were arranged on a shelf so that the top of the canopy (post-emerge) or top of the soil surface (pre-emerge) was 40-45 cm below the nozzle. Pressurized air was used to force the test solution through the nozzle as it was mechanically advanced (via electrically driven chain drive) over the top of all test plants/pots. This application simulates a typical commercial field herbicide application.
(§3) In the post-emerge test, a commercial non-ionic surfactant was also included (0.25% v/v) to enhance wetting of the leaf surfaces of target plants. Immediately after application, test units of the pre-emerge applications were watered at the soil surface to incorporate the test materials. Subsequently, these test units were bottom-watered. Post-emerge test units were always bottom-watered.
(§4) At 14 days after application of the test materials, phytotoxicity ratings were recorded. A rating scale of 0-100 was used as previously described in Research Methods in Weed Science, 2nd edition, B. Truelove, Ed., Southern Weed Science Society, Auburn University, Auburn, Ala. 1977. Briefly, “0” corresponds to no damage and “100” corresponds to complete death of all plants in the test unit. This scale was used both to determine efficacy against weed species and damage to crop species. Herbicide activity data for various compounds of this invention, which are shown by compound No. in Tables 1-8, are shown in Tables 11 and 12.

[2] = tested on: barnyardgrass (Echinochloa crus-galli, ECHCG); assay: as above; conditions: pre-emerge, 14 days after application, scale 0-100
From the text: as §1, §2
(§5) All test compounds Were dissolved in acetone and applied to the test units in a volume of 187 l /ha. Test materials were applied at rates ranging from 15 g ai/ha to 1000 g ai/ha using a track sprayer equipped with a TJ8001E even flow flat fan spray nozzle. Plants were arranged on a shelf so that the top of the canopy (post-emerge) or top of the soil surface (pre-emerge) was 40-45 cm below the nozzle. Pressurized air was used to force the test solution through the nozzle as it was mechanically advanced (via electrically driven chain drive) over the top of all test plants/pots. This application simulates a typical commercial field herbicide application.
as §3, §4

[3] = tested on: green foxtail (Setaria viridis, SETVI); assay: as above; conditions: pre-emerge, 14 days after application, scale 0-100
From the text: as §1, §2, §5, §3, §4

[4] = tested on: ivyleaf morningglory (Ipomoea hederacea, IPOHE); assay: as above; conditions: pre-emerge, 14 days after application, scale 0-100
From the text: as §1, §2, §5, §3, §4

[5] = tested on: lambsquarters (Chenopodium album, CHEAL); assay: as above; conditions: pre-emerge, 14 days after application, scale 0-100
From the text: as §1, §2, §5, §3, §4

[6] = tested on: large crabgrass (Digitaria sanguinalis, DIGSA); assay: as above; conditions: pre-emerge, 14 days after application, scale 0-100
From the text: as §1, §2, §5, §3, §4

[7] = tested on: sicklepod (Cassia obtusifolia, CASOB); assay: as above; conditions: pre-emerge, 14 days after application, scale 0-100
From the text: as §1, §2, §5, §3, §4

[8] = tested on: velvetleaf (Abutilon theophrasti, ABUTH); assay: as above; conditions: pre-emerge, 14 days after application, scale 0-100
From the text: as §1, §2, §5, §3, §4

[9] = tested on: barnyardgrass (Echinochloa crus-galli, ECHCG); assay: Post-emerge test, greenhouse herbicide activity screening; conditions: post-emerge, 14 days after application, rating scale 0-100
From the text: as §1, §2, §5, §3, §4

[10] = tested on: green foxtail (Setaria viridis, SETVI); assay: as above; conditions: post-emerge, 14 days after application, rating scale 0-100
From the text: as §1, §2, §5, §3, §4

[11] = tested on: ivyleaf morningglory (Ipomoea hederacea, IPOHE); assay: as above; conditions: post-emerge, 14 days after application, rating scale 0-100
From the text: as §1, §2, §5, §3, §4

[12] = tested on: lambsquarters (Chenopodium album, CHEAL); assay: as above; conditions: post-emerge, 14 days after application, rating scale 0-100
From the text: as §1, §2, §5, §3, §4

[13] = tested on: large crabgrass (Digitaria sanguinalis, DIGSA); assay: as above; conditions: post-emerge, 14 days after application, rating scale 0-100
From the text: as §1, §2, §5, §3, §4

[14] = tested on: redroot pigweed (Amaranthus retroflexus, AMARE); assay: as above; conditions: post-emerge, 14 days after application, rating scale 0-100
From the text: as §1, §2, §5, §3, §4

[15] = tested on: sicklepod (Cassia obtusifolia, CASOB); assay: as above; conditions: post-emerge, 14 days after application, rating scale 0-100
From the text: as §1, §2, §5, §3, §4

[16] = tested on: velvetleaf (Abutilon theophrasti, ABUTH); assay: as above; conditions: post-emerge, 14 days after application, rating scale 0-100
From the text: as §1, §2, §5, §3, §4

Cn1c(C(F)(F)F)cc(=O)n(-c2ccc(Cl)cc2NC(=O)c2ccc3ccccc3c2)c1=O [Compound 2-131, 3-[4-chloro-2-(2-naphthoylamino)phenyl]-1-methyl-6-trifluoromethyl-2,4(1H, 3H)-pyrimidinedione]
phytotoxicity rating AMARE ([1]; 63 g ai/ha): 90
phytotoxicity rating AMARE ([1]; 250 g ai/ha): 95
phytotoxicity rating ECHCG ([2]; 63 g ai/ha): 10
phytotoxicity rating ECHCG ([2]; 250 g ai/ha): 60
phytotoxicity rating SETVI ([3]; 63 g ai/ha): 40
phytotoxicity rating SETVI ([3]; 250 g ai/ha): 90
phytotoxicity rating IPOHE ([4]; 63 g ai/ha): 30
phytotoxicity rating IPOHE ([4]; 250 g ai/ha): 85
phytotoxicity rating CHEAL ([5]; 63 g ai/ha): 90
phytotoxicity rating CHEAL ([5]; 250 g ai/ha): 100
phytotoxicity rating DIGSA ([6]; 63 g ai/ha): 40
phytotoxicity rating DIGSA ([6]; 250 g ai/ha): 80
phytotoxicity rating CASOB ([7]; 63 g ai/ha): 60
phytotoxicity rating CASOB ([7]; 250 g ai/ha): 95
phytotoxicity rating ABUTH ([8]; 63 g ai/ha): 85
phytotoxicity rating ABUTH ([8]; 250 g ai/ha): 100
ECHCG phytotoxicity rating ([9]; 63 g ai/ha): 30
ECHCG phytotoxicity rating ([9]; 250 g ai/ha): 60
SETVI phytotoxicity rating ([10]; 63 g ai/ha): 70
SETVI phytotoxicity rating ([10]; 250 g ai/ha): 90
IPOHE phytotoxicity rating ([11]; 63 g ai/ha): 100
IPOHE phytotoxicity rating ([11]; 250 g ai/ha): 100
CHEAL phytotoxicity rating ([12]; 63 g ai/ha): 100
CHEAL phytotoxicity rating ([12]; 250 g ai/ha): 100
DIGSA phytotoxicity rating ([13]; 63 g ai/ha): 30
DIGSA phytotoxicity rating ([13]; 250 g ai/ha): 70
AMARE phytotoxicity rating ([14]; 63 g ai/ha): 100
AMARE phytotoxicity rating ([14]; 250 g ai/ha): 100
CASOB phytotoxicity rating ([15]; 63 g ai/ha): 80
CASOB phytotoxicity rating ([15]; 250 g ai/ha): 100
ABUTH phytotoxicity rating ([16]; 63 g ai/ha): 100
ABUTH phytotoxicity rating ([16]; 250 g ai/ha): 100
